Data on 1 substance can be found in publication PMC8409945, “In silico identification and experimental validation of cellular uptake and intracellular labeling by a new cell penetrating peptide derived from CDN1” (Drug Delivery, 2021).

One series relates to cells. Put plainly: Cellular uptake of FITC-labeled peptides: comparison of CPPs, temperature and inhibitors (cell line not stated). Conditions: 1 h. The format is cell-based. As for the experimental part:
(§1) All cells (thawed cells were passaged less than 5 times) were suspended in 0.5 ml media and cultured in a 24-well plate at a concentration of 1.6 × 10^5 cells per well overnight. […] After incubation, the cells were washed with PBS three times and then imaged by fluorescence microscopy with 20 times lens (Nikon, Tokyo, Japan).
(§2) To determine the penetration efficiency of CPP, the cellular uptake of the indicated concentration of CPP was quantified by multimode spectrophotometry Peptide incubation. The washing step was the same as above, followed by cell lysate collection with 0.3 ml/well-lysing buffer (0.1 M NaOH) for 10 minutes, and then serially centrifuged at 110 g for 5 minutes. A plate-reader spectrophotometer (Tecan, Mannedorf, Switzerland) was used to quantify the fluorescence intensity of each well’s supernatant at the wavelengths of 485 nm in excitation and 535 nm in emission. The protein concentration of supernatant measured by Bradford assay was used to normalize fluorescence intensity. The fluorescence of cellular uptake was expressed as intensity per mg of total cellular protein. Experiments of quantification indicated in this paper were repeated at least three times.

Series [1] in a line: Peptide aggregation assay by native PAGE. The format is physicochemical. The following applies: 4 µl peptide 500 µM in PBS, 6.5% native PAGE; Figure S5(B).
In a further series the test system is HepG2 cells. The series can be described thus: Cellular uptake of FITC-labeled peptides, fluorescence microscopy and lysate fluorescence quantification. It counts as cell-based, human. As for the experimental part: as §1, §2

Procedure for mouse erythrocytes: Mouse erythrocytes free of plasma components were isolated and purified from mouse blood by centrifugation and wash. […] A value of 100% cell lysis was measured by the incubation of erythrocytes incubated with 0.1% Triton X-100.

As for “FITC-(Acp)-RKRRQTSMTDFYHSKRRLIFSKRK [P2]”, the “Red blood cell membrane damage (hemolysis)” value in the series on mouse erythrocytes is “did not observe red blood cell membrane damage”. Besides, the “Penetrating efficiency at different temperature” value in the series on cells (FITC-P2 5 µM, different temperature, 3 replications, Figure 5(A,B)) was “temperature dependent”. For the same substance, in the series on cells (FITC-P2 5 µM, NaN3, NH4Cl, Heparin, Serum, MβCD, Wortmannin, hyperosmotic sucrose, Chlorpromazine, EIPA, 3 replications, Figure 5(C,D)), the “Penetration efficiency in the presence of endocytosis-related inhibitors” value is “significantly decrease”. Also, in the series with cells (FITC-P2 5 µM, wortmannin and hyperosmotic sucrose, Figure 5(C,D)), the “Penetration in the presence of wortmannin and hyperosmotic sucrose” value was “slightly blocked”. Also, the “Penetration efficiency compared with well-known CPPs” value with cells (FITC-labeled peptides 5 µM, microscopy and fluorescence intensity normalized to protein, 3 replications, Figure 4(C,D)) is “higher penetration efficiency than MT23 but lower than TAT and hPP10 and Dot1l”. Besides, the “Aggregation propensity by native PAGE” value in series [1] is “a single band of P2 and without apparent aggregation”. Also, the “Fluorescence microscopy and normalized fluorescence intensity versus incubation time” value in the series on HepG2 cells was “significantly increased with incubation time”.
